The test system of assay [1] is blood TNFα. Briefly: Effect on blood TNF-α concentration elevation by LPS stimulation. The class given is in vivo. The following applies: female BALB/c mice; 3 mg/kg intravenously 1 h before LPS 5 mg/kg i.p.; serum 1 h after LPS; vs control group. On the procedure: Various kinds of cytokines are produced in vivo accompanying inflammatory response and abnormal immunity or the like. Therefore, the action of test compound with respect to blood TNFα concentration rise was investigated using laboratory animals.
Female BALB/c mice (6 weeks old) were purchased, and, after preliminary rearing for about 1 week, the mice were divided into groups of four animals. The test compound was dissolved in 10% captisol aqueous solution and was intravenously administered to the test group at a dose of 3 mg/kg. Solvent was administered to control group in the same way. LPS (5 mg/kg) was administered intraperitoneally to the test group and the control group one hour after the administration of the test compound or solvent, and blood was sampled one hour later. The serum was separated from the obtained blood, and the TNFα[…]concentration in the serum was measured using an assay kit made by R&D Systems Inc. The inhibition rates of the test group with respect to the control group are shown in Table 3.

Assay [2] has as its system TLR4 signal. Briefly: Inhibitory effect on TNFα production from HMGB-1 stimulated human Kupffer cell. The following applies: human primary Kupffer cells, HMGB-1 10 μg/mL, 24 hr. The format is cell-based. On the procedure:
TLR4 signal inhibitory activity in human Kupffer cell was evaluated as an inhibition rate of the test compound for TNFα produced by addition of HMGB-1 (SHINO-TEST), using human primary Kupffer cells (Cat# HUKCCS, Lot#HK8226) purchase from GIBCO. Cell suspension prepared in RPMI 1640-Gluta MAX™ medium supplemented with 10% inactivated bovine fetal serum was plated in 96-well I-type collagen-coated plate so as to contain 3.1×10^4 cells/100 μL/well. Then, the cells were cultured for 6 hr at 37° C. under 5% CO2/95% air to be adhered to the bottom of the plate. The non-adhered cells were rinsed off with PBS, and the test compound dissolved in DMSO was added to the adhered cells (final concentration: 1, 10, 100 nM), and the mixture was cultured for 1 hr. Then, HMGB-1 was added thereto (final concentration: 10 μg/mL), and the mixture was incubated for additional 24 hr. TNFα production amount contained in the culture supernatant was quantified by ELISA method (R&D systems). TNFα production inhibition rate (%) was calculated using the value under the HMGB-1-free condition as control of 100% inhibition and the value under the compound-free condition as control of 0% inhibition.

Data on 1 compound can be found in patent US9828357B2, “Cyclic compounds” (Takeda Pharmaceutical Company Limited, priority 2015, dated 2017).

Structures are written as SMILES.

Regarding `CCOC(=O)C1=CC2(CC[C@H]1S(=O)(=O)[C@H]1CCc3cccc(Cl)c31)O[C@H](CO)[C@@H](CO)O2` [Compound 6, Ethyl (2R,3R,8R)-8-(((1S)-7-chloro-2,3-dihydro-1H-inden-1-yl)sulfonyl)-2,3-bis(hydroxymethyl)-1,4-dioxaspiro[4.5]dec-6-ene-7-carboxylate], the “Blood TNFα inhibition rate (% inhibition)” value in assay [1] is reported as 93.1 % inhibition. For the same compound, the “TNFα production inhibition rate (% inhibition)” value amounted to 45 % inhibition in assay [2] (compound concentration 1 nM), 82 % inhibition in assay [2] (compound concentration 10 nM) and 85 % inhibition in assay [2] (compound concentration 100 nM).
